In ChEMBL document CHEMBL3774331, “Inhibition of tau aggregation using a naturally-occurring cyclic peptide scaffold” (Eur J Med Chem, 2016):
Calls of active or inactive are those of the source. The rule behind the calls is not given here. Where a SMILES comes first, the peptide text is derived from it. Bridges are numbered along the chain shown (N, C = ends).

Columns and labels:
[1] = Inhibition of TAU derived synthetic hexapeptide AcPHF6 fibril formation at compound:AcPHF6 ratio of 1:1 to 1:64 incubated for 60 mins by thioflavin S fluorescence assay
[2] = Binding affinity to thioflavin S at compound:AcPHF6 ratio of 1:1 incubated for 120 mins by fluorescence assay
[3] = Binding affinity to thioflavin S at compound:AcPHF6 ratio of 1:1 to 1:64 incubated for 120 mins by fluorescence assay
[4] = Inhibition of TAU derived synthetic hexapeptide AcPHF6 fibril formation incubated for 120 mins by thioflavin S fluorescence assay

Structure (SMILES)	inhibition [1]	Activity [2]	Activity [3]	inhibition [4]
CC[C@H](C)[C@@H]1NC(=O)[C@H](CCC(N)=O)NC(=O)[C@H](C(C)C)NC(=O)CNC(=O)[C@H](CC(=O)O)NC(=O)[C@@H]2CCCN2C(=O)[C@H](C(C)C)NC(=O)[C@H](C)NC(=O)[C@H](Cc2ccccc2)NC(=O)[C@@H]2CSSC[C@H](NC1=O)C(=O)N[C@@H](Cc1ccc(O)cc1)C(=O)N[C@@H](CCCCN)C(=O)N[C@@H](CO)C(=O)N[C@@H]([C@@H](C)CC)C(=O)N1CCC[C@H]1C(=O)N1CCC[C@H]1C(=O)N[C@@H]([C@@H](C)CC)C(=O)N2 (cyclo(AVPDGVQICYKSIPPICF); disulfide 9-17)	Active	Active	–	–
CC[C@H](C)[C@@H]1NC(=O)[C@@H]2CCCN2C(=O)[C@@H]2CCCN2C(=O)[C@H]([C@@H](C)CC)NC(=O)[C@H](CO)NC(=O)[C@H](CCCCN)NC(=O)[C@H]([C@@H](C)O)NC(=O)[C@@H]2CSSC[C@H](NC1=O)C(=O)N[C@@H](Cc1ccccc1)C(=O)N1CCC[C@H]1C(=O)N[C@@H](CC(=O)O)C(=O)NCC(=O)N[C@@H](CCCNC(=N)N)C(=O)N2	Active	–	inactive	Dose-dependent effect
